Laboratory results taken from US20230085307A1, “PYRIDAZINONE COMPOUND AND HERBICIDE” (NISSAN CHEMICAL CORPORATION, priority 2019, published 2023).

How the values were obtained:
Japanese bulrush = assay: Test Example 1: herbicidal activity, application before weed generation under submerged conditions (Table 16, symbol B); type: in vivo, Japanese bulrush (Schoenoplectus juncoides); conditions: amount of applied herbicide 320 g/ha
In short: (§1)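 Submerged Wagner pots (alluvial soil, 4 cm water) sown with weed seeds and planted with 2.5-leaf rice seedlings; emulsifiable concentrate diluted in water applied to water surface on sowing day. Held in greenhouse at 25-30 °C; injury scored 0-5 by herbicidal rate after three weeks.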

oval-leafed pondweed = assay: Test Example 1: herbicidal activity, application before weed generation under submerged conditions (Table 16, symbol C); type: in vivo, oval-leafed pondweed (Monochoria vaginalis); conditions: amount of applied herbicide 320 g/ha
In short: as §1

barnyard grass [1] = assay: Test Example 3: herbicidal effect by foliage application, Wagner pot (Table 18, symbol H); type: in vivo, barnyard grass (Echinochloa crus-galli); conditions: for herbicidal effect on H: barnyard grass: amount of applied herbicide 320 g/ha
In short: (§2)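 Plants were sown in alluvial soil held under 0.1–0.5 cm standing water and grown 14 days in a greenhouse at 25–30 °C. An emulsifiable formulation, water-diluted to the set dose, was then sprayed onto the foliage, and effects were scored three weeks later using previously defined criteria.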

Chinese sprangletop = assay: Test Example 3: herbicidal effect by foliage application, Wagner pot (Table 18, symbol D); type: in vivo, chinese sprangletop (Leptochloa chinensis); conditions: for herbicidal effect on D: Chinese sprangletop: amount of applied herbicide 320 g/ha
In short: as §2

southern crabgrass [2] = assay: Test Example 4: herbicidal effect by soil treatment (Table 19, symbol F); type: in vivo, southern crabgrass (Digitaria ciliaris); conditions: amount of applied herbicide 320 g/ha
In short: (§3)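 Pre-emergence style soil spray: seeds under ~1.5 cm sterilized diluvial soil received a uniform coat of emulsion diluted to the predetermined herbicide amount. Greenhouse 25–30° C; readout at week three on previously defined criteria.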

wild oat [3] = assay: Test Example 4: herbicidal effect by soil treatment (Table 19, symbol I); type: in vivo, wild oat (Avena fatua); conditions: amount of applied herbicide 320 g/ha
In short: as §3

blackgrass [4] = assay: Test Example 4: herbicidal effect by soil treatment (Table 19, symbol J); type: in vivo, blackgrass (Alopecurus myosuroides); conditions: amount of applied herbicide 320 g/ha
In short: as §3

Italian ryegrass = assay: Test Example 4: herbicidal effect by soil treatment (Table 19, symbol K); type: in vivo, Italian ryegrass (Lolium multiflorum); conditions: amount of applied herbicide 320 g/ha
In short: as §3

redroot pigweed = assay: Test Example 4: herbicidal effect by soil treatment (Table 19, symbol N); type: in vivo, redroot pigweed (Amaranthus retroflexus); conditions: amount of applied herbicide 320 g/ha
In short: as §3

false cleavers [5] = assay: Test Example 4: herbicidal effect by soil treatment (Table 19, symbol Q); type: in vivo, false cleavers (Galium spurium); conditions: amount of applied herbicide 320 g/ha
In short: as §3

southern crabgrass [6] = assay: Test Example 5: herbicidal effect by foliage application, plastic box (Table 20, symbol F); type: in vivo, southern crabgrass (Digitaria ciliaris); conditions: foliage application, 320 g/ha, three weeks after application
In short: (§4)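 Plants were sown into sterilized diluvial soil under about 1.5 cm cover and kept in a greenhouse at 25° C. to 30° C. Fourteen days on, foliage received an even spray of the diluted emulsion. Herbicidal or crop effect was judged three weeks afterwards.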

barnyard grass [7] = assay: Test Example 5: herbicidal effect by foliage application, plastic box (Table 20, symbol H); type: in vivo, barnyard grass (Echinochloa crus-galli); conditions: foliage application, 320 g/ha, three weeks after application
In short: as §4

wild oat [8] = assay: Test Example 5: herbicidal effect by foliage application, plastic box (Table 20, symbol I); type: in vivo, wild oat (Avena fatua); conditions: foliage application, 320 g/ha, three weeks after application
In short: as §4

blackgrass [9] = assay: Test Example 5: herbicidal effect by foliage application, plastic box (Table 20, symbol J); type: in vivo, blackgrass (Alopecurus myosuroides); conditions: foliage application, 320 g/ha, three weeks after application
In short: as §4

windgrass = assay: Test Example 5: herbicidal effect by foliage application, plastic box (Table 20, symbol L); type: in vivo, windgrass (Apera spica-venti); conditions: foliage application, 320 g/ha, three weeks after application
In short: as §4

lambsquarters = assay: Test Example 5: herbicidal effect by foliage application, plastic box (Table 20, symbol O); type: in vivo, lambsquarters (Chenopodium album); conditions: foliage application, 320 g/ha, three weeks after application
In short: as §4

false cleavers [10] = assay: Test Example 5: herbicidal effect by foliage application, plastic box (Table 20, symbol Q); type: in vivo, false cleavers (Galium spurium); conditions: foliage application, 320 g/ha, three weeks after application
In short: as §4

persian speedwell = assay: Test Example 5: herbicidal effect by foliage application, plastic box (Table 20, symbol R); type: in vivo, Persian speedwell (Veronica persica); conditions: foliage application, 320 g/ha, three weeks after application
In short: as §4

Compound: CCCC(=O)Oc1c(C)nn(C)c(=O)c1-c1c(-c2ccccc2OC)sc2cc(F)ccc12 [3-004]
- Herbicidal effect, B: Japanese bulrush (Japanese bulrush): 3 (Herbicidal rate of 40% or more and less than 70%)
- Herbicidal effect, C: oval-leafed pondweed (oval-leafed pondweed): 3 (Herbicidal rate of 40% or more and less than 70%)
- herbicidal effect on H: barnyard grass (barnyard grass [1]): 5 (Herbicidal rate of 90% or more (almost completely withered))
- herbicidal effect on D: Chinese sprangletop (Chinese sprangletop): 4 (Herbicidal rate of 70% or more and less than 90%)
- herbicidal effect, F: southern crabgrass (southern crabgrass [2]): 4 (Herbicidal rate of 70% or more and less than 90%)
- herbicidal effect, I: wild oat (wild oat [3]): 3 (Herbicidal rate of 40% or more and less than 70%)
- herbicidal effect, J: blackgrass (blackgrass [4]): 4 (Herbicidal rate of 70% or more and less than 90%)
- herbicidal effect, K: Italian ryegrass (Italian ryegrass): 5 (Herbicidal rate of 90% or more (almost completely withered))
- herbicidal effect, N: redroot pigweed (redroot pigweed): 5 (Herbicidal rate of 90% or more (almost completely withered))
- herbicidal effect, Q: false cleavers (false cleavers [5]): 5 (Herbicidal rate of 90% or more (almost completely withered))
- F: southern crabgrass, herbicidal effect grade (southern crabgrass [6]): 3 (Herbicidal rate of 40% or more and less than 70%)
- H: barnyard grass, herbicidal effect grade (barnyard grass [7]): 5 (Herbicidal rate of 90% or more (almost completely withered))
- I: wild oat, herbicidal effect grade (wild oat [8]): 4 (Herbicidal rate of 70% or more and less than 90%)
- J: blackgrass, herbicidal effect grade (blackgrass [9]): 5 (Herbicidal rate of 90% or more (almost completely withered))
- L: windgrass, herbicidal effect grade (windgrass): 5 (Herbicidal rate of 90% or more (almost completely withered))
- O: lambsquarters, herbicidal effect grade (lambsquarters): 5 (Herbicidal rate of 90% or more (almost completely withered))
- Q: false cleavers, herbicidal effect grade (false cleavers [10]): 5 (Herbicidal rate of 90% or more (almost completely withered))
- R: persian speedwell, herbicidal effect grade (persian speedwell): 5 (Herbicidal rate of 90% or more (almost completely withered))

Compound: COc1ccc(-c2sc3cc(F)ccc3c2-c2c(O)c(C)nn(C)c2=O)cc1 [3-005]
- Herbicidal effect, B: Japanese bulrush (Japanese bulrush): 4 (Herbicidal rate of 70% or more and less than 90%)
- Herbicidal effect, C: oval-leafed pondweed (oval-leafed pondweed): 4 (Herbicidal rate of 70% or more and less than 90%)
- herbicidal effect on H: barnyard grass (barnyard grass [1]): 5 (Herbicidal rate of 90% or more (almost completely withered))
- herbicidal effect on D: Chinese sprangletop (Chinese sprangletop): 3 (Herbicidal rate of 40% or more and less than 70%)
- herbicidal effect, F: southern crabgrass (southern crabgrass [2]): 0 (Herbicidal rate of 5% or less (almost no effect))
- herbicidal effect, I: wild oat (wild oat [3]): 0 (Herbicidal rate of 5% or less (almost no effect))
- herbicidal effect, J: blackgrass (blackgrass [4]): 0 (Herbicidal rate of 5% or less (almost no effect))
- herbicidal effect, K: Italian ryegrass (Italian ryegrass): 5 (Herbicidal rate of 90% or more (almost completely withered))
- herbicidal effect, N: redroot pigweed (redroot pigweed): 5 (Herbicidal rate of 90% or more (almost completely withered))
- herbicidal effect, Q: false cleavers (false cleavers [5]): 0 (Herbicidal rate of 5% or less (almost no effect))
- F: southern crabgrass, herbicidal effect grade (southern crabgrass [6]): 3 (Herbicidal rate of 40% or more and less than 70%)
- H: barnyard grass, herbicidal effect grade (barnyard grass [7]): 3 (Herbicidal rate of 40% or more and less than 70%)
- I: wild oat, herbicidal effect grade (wild oat [8]): 3 (Herbicidal rate of 40% or more and less than 70%)
- J: blackgrass, herbicidal effect grade (blackgrass [9]): 0 (Herbicidal rate of 5% or less (almost no effect))
- L: windgrass, herbicidal effect grade (windgrass): 3 (Herbicidal rate of 40% or more and less than 70%)
- O: lambsquarters, herbicidal effect grade (lambsquarters): 5 (Herbicidal rate of 90% or more (almost completely withered))
- Q: false cleavers, herbicidal effect grade (false cleavers [10]): 4 (Herbicidal rate of 70% or more and less than 90%)
- R: persian speedwell, herbicidal effect grade (persian speedwell): 5 (Herbicidal rate of 90% or more (almost completely withered))

Compound: CCCC(=O)Oc1c(C)nn(C)c(=O)c1-c1c(-c2ccccc2OCC)sc2cc(F)ccc12 [3-007]
- Herbicidal effect, B: Japanese bulrush (Japanese bulrush): 5 (Herbicidal rate of 90% or more (almost completely withered))
- Herbicidal effect, C: oval-leafed pondweed (oval-leafed pondweed): 4 (Herbicidal rate of 70% or more and less than 90%)
- herbicidal effect on H: barnyard grass (barnyard grass [1]): 5 (Herbicidal rate of 90% or more (almost completely withered))
- herbicidal effect on D: Chinese sprangletop (Chinese sprangletop): 5 (Herbicidal rate of 90% or more (almost completely withered))
- herbicidal effect, F: southern crabgrass (southern crabgrass [2]): 4 (Herbicidal rate of 70% or more and less than 90%)
- herbicidal effect, I: wild oat (wild oat [3]): 2 (Herbicidal rate of 20% or more and less than 40%)
- herbicidal effect, J: blackgrass (blackgrass [4]): 3 (Herbicidal rate of 40% or more and less than 70%)
- herbicidal effect, K: Italian ryegrass (Italian ryegrass): 4 (Herbicidal rate of 70% or more and less than 90%)
- herbicidal effect, N: redroot pigweed (redroot pigweed): 4 (Herbicidal rate of 70% or more and less than 90%)
- herbicidal effect, Q: false cleavers (false cleavers [5]): 5 (Herbicidal rate of 90% or more (almost completely withered))
- F: southern crabgrass, herbicidal effect grade (southern crabgrass [6]): 5 (Herbicidal rate of 90% or more (almost completely withered))
- H: barnyard grass, herbicidal effect grade (barnyard grass [7]): 5 (Herbicidal rate of 90% or more (almost completely withered))
- I: wild oat, herbicidal effect grade (wild oat [8]): 5 (Herbicidal rate of 90% or more (almost completely withered))
- J: blackgrass, herbicidal effect grade (blackgrass [9]): 5 (Herbicidal rate of 90% or more (almost completely withered))
- L: windgrass, herbicidal effect grade (windgrass): 5 (Herbicidal rate of 90% or more (almost completely withered))
- O: lambsquarters, herbicidal effect grade (lambsquarters): 5 (Herbicidal rate of 90% or more (almost completely withered))
- Q: false cleavers, herbicidal effect grade (false cleavers [10]): 5 (Herbicidal rate of 90% or more (almost completely withered))
- R: persian speedwell, herbicidal effect grade (persian speedwell): 5 (Herbicidal rate of 90% or more (almost completely withered))

Compound: CCCC(=O)Oc1c(C)nn(C)c(=O)c1-c1c(-c2ccc(F)cc2OCC)sc2cc(OCC)ccc12 [3-096]
- Herbicidal effect, B: Japanese bulrush (Japanese bulrush): 5 (Herbicidal rate of 90% or more (almost completely withered))
- Herbicidal effect, C: oval-leafed pondweed (oval-leafed pondweed): 5 (Herbicidal rate of 90% or more (almost completely withered))
- herbicidal effect on barnyard grass (H) (barnyard grass [1]; 320 g/ha): 5 (Herbicidal rate of 90% or more (almost completely withered))
- herbicidal effect on Chinese sprangletop (D) (Chinese sprangletop; 320 g/ha): 5 (Herbicidal rate of 90% or more (almost completely withered))
- I: wild oat, herbicidal effect grade (wild oat [3]): 0 (Herbicidal rate of 5% or less (almost no effect))
- J: blackgrass, herbicidal effect grade (blackgrass [4]): 3 (Herbicidal rate of 40% or more and less than 70%)
- K: Italian ryegrass, herbicidal effect grade (Italian ryegrass): 2 (Herbicidal rate of 20% or more and less than 40%)
- N: redroot pigweed, herbicidal effect grade (redroot pigweed): 5 (Herbicidal rate of 90% or more (almost completely withered))
- Q: false cleavers, herbicidal effect grade (false cleavers [5]): 5 (Herbicidal rate of 90% or more (almost completely withered))
- F: southern crabgrass, herbicidal effect grade (southern crabgrass [6]): 5 (Herbicidal rate of 90% or more (almost completely withered))
- H: barnyard grass, herbicidal effect grade (barnyard grass [7]): 5 (Herbicidal rate of 90% or more (almost completely withered))
- I: wild oat, herbicidal effect grade (wild oat [8]): 5 (Herbicidal rate of 90% or more (almost completely withered))
- J: blackgrass, herbicidal effect grade (blackgrass [9]): 5 (Herbicidal rate of 90% or more (almost completely withered))
- L: windgrass, herbicidal effect grade (windgrass): 5 (Herbicidal rate of 90% or more (almost completely withered))
- O: lambsquarters, herbicidal effect grade (lambsquarters): 5 (Herbicidal rate of 90% or more (almost completely withered))
- Q: false cleavers, herbicidal effect grade (false cleavers [10]): 5 (Herbicidal rate of 90% or more (almost completely withered))
- R: persian speedwell, herbicidal effect grade (persian speedwell): 5 (Herbicidal rate of 90% or more (almost completely withered))
